Source: patent US9096560B2, “5-heterocyclylalkyl-3-hydroxy-2-phenylcyclopent-2-enones as herbicides” (Syngenta Limited, priority 2008, dated 2015)

Key:
Type in all cases: in vivo
[1] = tested on: Avena fatua (AVEFA); assay: Example B pre-emergence herbicidal test, AVEFA; details: Avena fatua, 312 h, rate 250 g/ha, evaluated after 13 days, 100=total damage to plant, 0=no damage to plant
Method in brief: (§1)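 Pots sown, sprayed day 1 pre-emergence; spray: aqueous dilution of formulation in acetone/water 50:50 + 0.5% Tween 20. Glasshouse 24/16° C, 14 h light, 65% RH, watering twice daily. Visual damage rating at 13 d, 0–100 scale.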

[2] = tested on: Echinochloa crus-galli (ECHCG); assay: Example B post-emergence herbicidal test, ECHCG; details: Echinochloa crus-galli, 312 h, rate 250 g/ha, evaluated after 13 days, scale 0-100, read-out: Post-emergence activity ECHCG (100=total damage to plant; 0=no damage to plant)
Method in brief: (§2)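 Damage was rated visually 13 days after treatment, where 100 meant total plant damage and 0 none. Treatment was a spray of aqueous solution (acetone/water 50:50, 0.5% Tween 20) applied to plants cultivated 8 days from seed under controlled glasshouse conditions.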

[3] = tested on: Lolium perenne (LOLPE); assay: Example B post-emergence herbicidal test, LOLPE; details: Lolium perenne, 312 h, rate 250 g/ha, evaluated after 13 days, scale 0-100, read-out: Post-emergence activity LOLPE (100=total damage to plant; 0=no damage to plant)
Method in brief: as §2

[4] = tested on: Echinochloa crus-galli (ECHCG); assay: Example B pre-emergence herbicidal test, ECHCG; details: Echinochloa crus-galli, 312 h, rate 250 g/ha, evaluated after 13 days, 100=total damage to plant, 0=no damage to plant
Method in brief: as §1

[5] = tested on: Alopecurus myosuroides (ALOMY); assay: Example B post-emergence herbicidal test, ALOMY; details: Alopecurus myosuroides, 312 h, rate 250 g/ha, evaluated after 13 days, scale 0-100, read-out: Post-emergence activity ALOMY (100=total damage to plant; 0=no damage to plant)
Method in brief: as §2

[6] = tested on: Lolium perenne (LOLPE); assay: Example B pre-emergence herbicidal test, LOLPE; details: Lolium perenne, 312 h, rate 250 g/ha, evaluated after 13 days, 100=total damage to plant, 0=no damage to plant
Method in brief: as §1

[7] = tested on: Avena fatua (AVEFA); assay: Example B post-emergence herbicidal test, AVEFA; details: Avena fatua, 312 h, rate 250 g/ha, evaluated after 13 days, scale 0-100, read-out: Post-emergence activity AVEFA (100=total damage to plant; 0=no damage to plant)
Method in brief: as §2

[8] = tested on: Alopecurus myosuroides (ALOMY); assay: Example B pre-emergence herbicidal test, ALOMY; details: Alopecurus myosuroides, 312 h, rate 250 g/ha, evaluated after 13 days, 100=total damage to plant, 0=no damage to plant
Method in brief: as §1

SMILES | pest or weed control at 250 g/ha [1] [%] | pest or weed control at 250 g/ha [2] [%] | pest or weed control at 250 g/ha [3] [%] | pest or weed control at 250 g/ha [4] [%] | pest or weed control at 250 g/ha [5] [%] | pest or weed control at 250 g/ha [6] [%] | pest or weed control at 250 g/ha [7] [%] | pest or weed control at 250 g/ha [8] [%]
Cc1cc(C)c(C2C(=O)C(C)C(CC3CCOC3)C2=O)c(C)c1 (centres unmarked) [Compound T29] | 50 | 80 | 90 | 90 | 70 | 100 | 60 | 70
Cc1cc(C)c(C2C(=O)CC(C)(CC3CCOC3)C2=O)c(C)c1 (centres unmarked) [Compound T30] | 30 | 80 | 80 | 80 | 80 | 90 | 70 | 60
Cc1cc(C)c(C2C(=O)C/C(=C\C3CCN(S(C)(=O)=O)C3)C2=O)c(C)c1 (centres unmarked) [Compound T31] | 90 | 80 | 70 | 80 | 90 | 90 | 90 | 80
COC(=O)N1CCC(/C=C2\CC(=O)C(c3c(C)cc(C)cc3C)C2=O)C1 (centres unmarked) [Compound T32] | 90 | 90 | 90 | 100 | 90 | 100 | 90 | 70
CCSC(=O)N1CCC(/C=C2\CC(=O)C(c3c(C)cc(C)cc3C)C2=O)C1 (centres unmarked) [Compound T33] | 50 | 60 | 60 | 90 | 60 | 90 | 70 | 60
Cc1cc(C)c(C2C(=O)C/C(=C\C3CCN(C(=O)c4ccccc4)C3)C2=O)c(C)c1 (centres unmarked) [Compound T34] | 70 | 100 | 90 | 100 | 90 | 90 | 100 | 70
CC(=O)N1CCC(CC2CC(=O)C(c3c(C)cc(C)cc3C)C2=O)C1 (centres unmarked) [Compound T35] | 10 | 70 | 70 | 40 | 70 | 70 | 60 | 30
Cc1cc(C)c(C2C(=O)CC(CC3CCN(S(C)(=O)=O)C3)C2=O)c(C)c1 (centres unmarked) [Compound T36] | 90 | 90 | 80 | 100 | 80 | 90 | 90 | 90
Cc1cc(C)c(C2C(=O)CC(C(O)C3CCOC(C)(C)C3)C2=O)c(C)c1 (centres unmarked) [Compound T38] | 40 | 100 | 100 | 100 | 100 | 70 | 100 | 90
Cc1cc(C)c(C2C(=O)C/C(=C\C3CCN(C(=O)OCc4ccccc4)CC3)C2=O)c(C)c1 (centres unmarked) [Compound T42] | 0 | 30 | 20 | 20 | 0 | 0 | 0 | 0
COC(=O)N1CCC(CC2CC(=O)C(c3c(C)cc(C)cc3C)C2=O)C1 (centres unmarked) [Compound T43] | 100 | 80 | 100 | 100 | 90 | 100 | 90 | 80
CCC1CCC(CC2CC(=O)C(c3c(C)cc(C)cc3C)C2=O)O1 (centres unmarked) [Compound T44] | 20 | 80 | 70 | 60 | 60 | 100 | 40 | 90
CC(=O)N1CCCCC1/C=C1\CC(=O)C(c2c(C)cc(C)cc2C)C1=O (centres unmarked) [Compound T46] | 10 | 60 | 40 | 10 | 60 | 10 | 50 | 50
Cc1cc(C)c(C2C(=O)C/C(=C\C3CCCCN3S(C)(=O)=O)C2=O)c(C)c1 (centres unmarked) [Compound T47] | 50 | 60 | 30 | 40 | 30 | 60 | 50 | 20
CC(=O)N1CCCCC1CC1CC(=O)C(c2c(C)cc(C)cc2C)C1=O (centres unmarked) [Compound T48] | 90 | 100 | 70 | 100 | 90 | 90 | 90 | 90
CCc1cc(C)cc(C)c1C1C(=O)CC(CC2CCOCC2)C1=O (centres unmarked) [Compound T50] | 100 | 100 | 100 | 100 | 100 | 100 | 100 | 100
Cc1cc(C)c(C2C(=O)CC(CC3CCCCN3S(C)(=O)=O)C2=O)c(C)c1 (centres unmarked) [Compound T51] | 90 | 70 | 60 | 80 | 70 | 100 | 80 | 80
Cc1cccc(C)c1C1C(=O)CC(CC2CCOCC2)C1=O (centres unmarked) [Compound T52] | 80 | 100 | 90 | 80 | 90 | 100 | 80 | 100
Cc1cc(C)c(C2C(=O)C/C(=C\C3CCN(C(=O)OC(C)(C)C)CC3)C2=O)c(C)c1 (centres unmarked) [Compound T54] | 50 | 80 | 70 | 100 | 80 | 100 | 80 | 80
Cc1cc(C)c(C2C(=O)CC(CC3CCN(C(=O)OC(C)(C)C)CC3)C2=O)c(C)c1 (centres unmarked) [Compound T55] | 60 | 70 | 60 | 90 | 70 | 100 | 50 | 80
CCc1cc(C)cc(C)c1C1C(=O)CC(CCC2CCOCC2)C1=O (centres unmarked) [Compound T58] | 90 | 100 | 90 | 100 | 100 | 100 | 90 | 90
CCc1cc(C)cc(C)c1C1C(=O)C/C(=C\C2CCOC2)C1=O (centres unmarked) [Compound T59] | 90 | 90 | 100 | 100 | 90 | 100 | 100 | 90
